Data on eleven molecules can be found in patent EP4813463A2, “TYK2 INHIBITORS AND COMPOSITIONS AND METHODS THEREOF” (Lynk Pharmaceuticals Co. Ltd., priority 2023, dated 2024).

In brackets after ≈: the same amount, converted by molar mass. Like-named read-outs stand apart in the source and are kept apart here.

Data set [1] concerns the target T1, TYK2-JH2 domain (Homo sapiens, UniProt P29597).
T1 construct: JAK1-JH2 domain or TYK2-JH2 domain enzyme in assay buffer
The data set can be described thus: Binding activity test for JH2 domain of TYK2 (Tb-antibody/tracer FRET). Summed up:
(§1)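 IC50 values (nM) come from TR-FRET readings taken after a 25°C incubation followed by overnight at 4°C. Each well held JH2 domain protein, Tb-antibody, tracer and test compound titrated in 11 threefold steps, with DMSO high and low controls.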

Data set [2] can be described thus: Kinetic solubility. Type of data set: physicochemical. The settings on record: kinetic from dmso stock, 100 mM pH 7.4 phosphate buffer, 1% DMSO, room temperature, read-out: Kinetics Solubility_PBS7.4. The essentials:
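Compounds diluted from 10 mM/5 mM DMSO stocks into 100 mM phosphate buffer pH 7.4 (1% DMSO final), shaken 2 h at room temperature, then centrifuged. Dissolved compound in supernatant quantified by LC-MS/MS against a standard curve.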

Data set [3] concerns the target T2, JAK1-JH2 domain (Homo sapiens, UniProt P23458).
T2 construct: JAK1-JH2 domain or TYK2-JH2 domain enzyme in assay buffer
Nature of the data set: Binding activity test for JH2 domain of JAK1 (Tb-antibody/tracer FRET). Summed up:
as §1

Data set [4] relates to Ba/F3-FL-TYK2-P760L cells. The data set can be described thus: Anti-proliferative assay in engineered Ba/F3 cells (Cell-Titer Glo, 72 h). It is filed as cell-based. The settings on record: Mus musculus, concentration that causes 50% growth inhibition, read-out: Baf3-FL-T2P760L. Summed up:
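IC50 from luminescent ATP viability after 72 h compound exposure (37 °C, 5% CO2), % inhibition normalised to DMSO-treated cells minus medium blank. IL-3-free Ba/F3-FL-TYK2-P760L (Tel-JAK fusion) cells in 10% FBS RPMI-1640 received 9 three-fold doses, top 20 µM, 0.1% DMSO.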

Data set [5] concerns the target T3, JAK2 (Homo sapiens, UniProt O60674).
T3 construct: purchased Carna Biosciences
Nature of the data set: JAK2 kinase activity, microfluidic assay (Caliper EZ Reader II, FAM labeled peptide substrate). Type of data set: biochemical. The settings on record: JAK2 1.5 nM, 1 mM ATP. As to the method:
Testing for JAK1, JAK2 and TYK2 Kinase Activities
JAK activity was determined in the reaction buffer 50 mM HEPES, 0.01% Brij35, 10 mM MgCl2, 2 mM DTT by a microfluidic assay. The phosphorylation of a FAM labeled peptide substrate was monitored in the Caliper EZ Reader II (Perkin Elmer). The assay condition for each batch of enzyme (Carna Biosciences) was optimized to obtain 10% conversion rate of peptide substrate.
The test compounds were dissolved in DMSO to a stock concentration of 10 mM. Three-fold serially diluted compounds with top concentration of 5 µM were pre-incubated with JAK1, JAK2 or TYK2 for 10 min at ambient temperature. The final DMSO concentration of assay mixture was 1%. […] The reaction was stopped by adding 50 mM EDTA.
And the well without compound but with equivalent DMSO was defined as no inhibition. The percent inhibition was calculated by the following formula: % Inhibition = (Conversion%_max−Conversion%_sample)/(Conversion%_max−Conversion%_min) × 100 [formula] wherein • Conversion%_ max = the conversion rate in the positive well without addition of compound • Conversion%_ sample = the conversion rate of test compounds • Conversion%_ min = the conversion rate in the well without addition of enzyme
The dose-response (percent inhibition) curve was plotted and IC50 values were determined by GraphPad software. The IC50 values of tested compounds were list in Table 3. Table 3. JAK1, JAK2 and TYK2 IC50 Values of Illustrative Compounds

For data set [6], the system named is pSTAT1. The data set can be described thus: Phosphorylation inhibition of STAT in human whole blood (IFN-alpha stimulated, flow cytometry). It is filed as cell-based. The settings on record: T-cell, 20 min, IFN-alpha stimulation 20 mins, CD3 T cells, read-out: pSTAT1 inhibition in hWB (IC50). The essentials:
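Fresh human whole blood stimulated 20 min with human universal type I IFN-alpha, then fixed, permeabilised and stained for CD3 and pSTAT1 (Y701). pSTAT1 in T cells read by flow cytometry; IC50 from 4-parameter logistic fit.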
For orientation: A flow cytometer gives signals particle by particle.

Where [7] appears, read: ratio of JAK1 JH2 to TYK2 JH2 binding IC50.
The mark [8] stands for this setting: JH2 domain enzyme; 60 min at 25°C, then 4°C overnight; read-out: TYK2 JH2 Binding IC50.
[9] abbreviates: phosphate buffer, pH 7.4, aqueous buffer.
The mark [10] stands for this setting: JH2 domain enzyme; 60 min at 25°C, then 4°C overnight; read-out: JAK1 JH2 Binding IC50.
Setting [11] is: BaF3, 72 h, 72 h compound treatment.

T2 sequence (P23458 583-855 limits assumed): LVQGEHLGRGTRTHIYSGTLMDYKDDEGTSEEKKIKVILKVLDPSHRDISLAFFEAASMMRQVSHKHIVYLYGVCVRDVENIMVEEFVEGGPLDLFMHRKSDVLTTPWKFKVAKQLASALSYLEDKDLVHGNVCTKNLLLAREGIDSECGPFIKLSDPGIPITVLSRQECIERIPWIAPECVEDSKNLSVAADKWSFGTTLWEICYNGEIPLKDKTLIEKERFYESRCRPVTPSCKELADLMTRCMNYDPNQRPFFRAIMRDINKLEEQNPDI
T1 sequence (P29597 589-875 limits assumed): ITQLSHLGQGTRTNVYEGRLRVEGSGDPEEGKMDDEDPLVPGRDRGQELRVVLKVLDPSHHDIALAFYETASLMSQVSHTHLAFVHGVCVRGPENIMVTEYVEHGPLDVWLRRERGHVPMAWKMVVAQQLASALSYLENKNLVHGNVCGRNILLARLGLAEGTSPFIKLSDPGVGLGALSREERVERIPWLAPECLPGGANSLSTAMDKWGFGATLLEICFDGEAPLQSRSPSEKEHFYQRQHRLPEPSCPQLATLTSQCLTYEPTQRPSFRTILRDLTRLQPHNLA
T3 sequence (O60674 849-1124 limits assumed): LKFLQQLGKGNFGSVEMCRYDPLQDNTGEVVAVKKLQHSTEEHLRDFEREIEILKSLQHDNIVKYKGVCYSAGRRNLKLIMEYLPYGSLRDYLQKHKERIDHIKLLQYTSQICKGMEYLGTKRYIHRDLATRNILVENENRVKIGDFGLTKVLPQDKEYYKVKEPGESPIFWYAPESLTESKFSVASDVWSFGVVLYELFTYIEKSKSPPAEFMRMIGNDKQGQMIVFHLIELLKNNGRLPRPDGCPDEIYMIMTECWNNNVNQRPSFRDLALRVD

Consider `COC(=O)c1cnc(NC(=O)[C@@H]2C[C@@H]2F)cc1Nc1nn(C)c2ccc(C(O)C(F)(F)F)c(OC)c12` (single isomer, unassigned) [Example 122A, Methyl 6-((1S,2S)-2-fluorocyclopropane-1-carboxamido)-4-((4-methoxy-1-methyl-5-((S*)-2,2,2-trifluoro-1-hydroxyethyl)-1H-indazol-3-yl)amino) nicotinate], for which the JAK1/TYK2 selectivity in data set [1] (setting [7]) is listed as 216.29. Moreover, the IC50 in data set [1] (read-out: TYK2 JH2 Binding IC50; JH2 domain enzyme; 60 min at 25°C, then 4°C overnight) came out at 0.072 nM; in data set [3] (read-out: JAK1 JH2 Binding IC50; JH2 domain enzyme; 60 min at 25°C, then 4°C overnight), 15.6 nM; in data set [4] (BaF3, 72 h compound treatment), 0.8 nM. For the same molecule, the solubility kinetic at 2 h in data set [2] (aqueous buffer) amounted to 10.3 µM (≈ 5.27 µg/mL).

Regarding `[2H]C([2H])([2H])NC(=O)c1cnc(NC(=O)C2CC2)cc1Nc1cnn2ccc([C@H](O)C(F)(F)F)c(OC)c12` [Example 7A, (S)-6-(cyclopropanecarboxamido)-4-((4-methoxy-5-(2,2,2-trifluoro-1-hydroxyethyl)pyrazolo[1,5-a]pyridin-3-yl)amino)-N-(methyl-d3)nicotinamide], the IC50 in data set [1] (setting [8]) is 0.097 nM; in data set [3] (setting [10]) it was 10.4 nM; in data set [5], more than 20000 nM; in data set [4] (setting [11]), 5.4 nM; in data set [6], 31.1 nM. Further, the JAK1/TYK2 selectivity in data set [1] (setting [7]) is reported as 107.6. For the same molecule, in data set [2] (setting [9]), the solubility kinetic at 2 h turned out to be 52.1 µM (≈ 25.1 µg/mL).

In the case of `[2H]C([2H])([2H])NC(=O)c1cnc(NC(=O)C2CC2)cc1Nc1cnn2ccc([C@@H](O)C(F)(F)F)c(OC)c12` [Example 7B, (R)-6-(cyclopropanecarboxamido)-4-((4-methoxy-5-(2,2,2-trifluoro-1-hydroxyethyl)pyrazolo[1,5-a]pyridin-3-yl)amino)-N-(methyl-d3)nicotinamide], the IC50 in data set [1] (setting [8]) is 0.528 nM; in data set [3] (setting [10]), 12.9 nM; in data set [5], more than 20000 nM; in data set [4] (setting [11]) it was 223 nM; in data set [6], 1000 nM. Besides, in data set [1] (setting [7]), the JAK1/TYK2 selectivity came out at 24.4. Further, the solubility kinetic at 2 h in data set [2] (setting [9]) was found to be 55.8 µM (≈ 26.9 µg/mL).

Take `[2H]C([2H])([2H])NC(=O)c1cnc(Nc2ccn(C)n2)cc1Nc1cnn2ccc([C@H](O)C(F)(F)F)c(OC)c12` [Example 21, (S)-4-((4-methoxy-5-(2,2,2-trifluoro-1-hydroxyethyl)pyrazolo[1,5-a]pyridin-3-yl)amino)-N-(methyl-d3)-6-((1-methyl-1H-pyrazol-3-yl)amino)nicotinamide]: the IC50 in data set [1] (setting [8]) is 0.077 nM; in data set [3] (setting [10]) it was 11 nM; in data set [5], more than 20000 nM; in data set [4] (setting [11]), 15.7 nM; in data set [6], 22.7 nM. Besides, the JAK1/TYK2 selectivity in data set [1] (setting [7]) is 142.7. For the same molecule, the solubility kinetic at 2 h in data set [2] (setting [9]) was determined as 57.2 µM (≈ 28.2 µg/mL).

With `[2H]C([2H])([2H])NC(=O)c1cnc(Nc2cc(C)nc(C)n2)cc1Nc1cnn2ccc([C@H](O)C(F)(F)F)c(OC)c12` [Example 25, (S)-6-((2,6-Dimethylpyrimidin-4-yl)amino)-4-((4-methoxy-5-(2,2,2-trifluoro-1-hydroxyethyl)pyrazolo[1,5-a]pyridin-3-yl)amino)-N-(methyl-d3)nicotinamide], the IC50 is 0.068 nM in data set [1] (setting [8]); 11.5 nM in data set [3] (setting [10]); more than 20000 nM in data set [5]; 5.01 nM in data set [4] (setting [11]); 30.8 nM in data set [6]. Besides, in data set [1] (setting [7]), the JAK1/TYK2 selectivity was 169.1. The solubility kinetic at 2 h in data set [2] (setting [9]) was 43 µM (≈ 22.3 µg/mL).

Consider `[2H]C([2H])([2H])NC(=O)c1cnc(NC(=O)C2CC2)cc1Nc1cnn2ccc([C@H](OC)C(F)(F)F)c(OC)c12` [Example 27, (S)-6-(cyclopropanecarboxamido)-4-((4-methoxy-5-(2,2,2-trifluoro-1-methoxyethyl)pyrazolo[1,5-a]pyridin-3-yl)amino)-N-(methyl-d3)nicotinamide], for which the IC50 in data set [1] (setting [8]) is 0.064 nM; in data set [3] (setting [10]), 8.19 nM; in data set [5], more than 20000 nM; in data set [4] (setting [11]), 8.54 nM; in data set [6], 51.2 nM. Also, the JAK1/TYK2 selectivity in data set [1] (setting [7]) is reported as 128.0. For the same molecule, the solubility kinetic at 2 h in data set [2] (setting [9]) was 14.2 µM (≈ 7.06 µg/mL).

On to `[2H]C([2H])([2H])NC(=O)c1nnc(NC(=O)C2CC2)cc1Nc1cnn2ccc([C@H](O)C(F)(F)F)c(OC)c12` [Example 30, (S)-6-(cyclopropanecarboxamido)-4-((4-methoxy-5-(2,2,2-trifluoro-1-hydroxyethyl)pyrazolo[1,5-a]pyridin-3-yl)amino)-N-(methyl-d3)pyridazine-3-carboxamide], for which the IC50 is 0.088 nM in data set [1] (setting [8]); 10.9 nM in data set [3] (setting [10]); more than 20000 nM in data set [5]; 7.96 nM in data set [4] (setting [11]); 52.2 nM in data set [6]. In data set [1] (setting [7]), the JAK1/TYK2 selectivity amounted to 124.4. The solubility kinetic at 2 h in data set [2] (setting [9]) stood at 42 µM (≈ 20.2 µg/mL).

In the case of `COC(=O)c1cnc(NC(=O)C2CC2)cc1Nc1nn(C)c2ccc([C@H](OC)C(F)(F)F)c(OC)c12` [Example 45B, Methyl (S)-6-(cyclopropanecarboxamido)-4-((4-methoxy-1-methyl-5-(2,2,2-trifluoro-1-methoxyethyl)-1H-indazol-3-yl)amino)nicotinate], the IC50 was found to be 0.124 nM in data set [1] (setting [8]), 24.5 nM in data set [3] (setting [10]) and 2.53 nM in data set [4] (setting [11]). Also, in data set [1] (setting [7]), the JAK1/TYK2 selectivity is given as 197.30. Also, the solubility kinetic at 2 h in data set [2] (setting [9]) was determined as 9.37 µM (≈ 4.75 µg/mL).

In the case of `COC(=O)c1cnc(NC(=O)C2CC2)cc1Nc1nn(C)c2ccc([C@H](O)C(F)(F)F)c(OC)c12` [Example 48A, Methyl (S)-6-(cyclopropanecarboxamido)-4-((4-methoxy-1-methyl-5-(2,2,2-trifluoro-1-hydroxyethyl)-1H-indazol-3-yl)amino)nicotinate], the IC50 is 0.145 nM in data set [1] (setting [8]); 23 nM in data set [3] (setting [10]); more than 5000 nM in data set [5]; 1.5 nM in data set [4] (setting [11]); 29.1 nM in data set [6]. Moreover, in data set [1] (setting [7]), the JAK1/TYK2 selectivity is 158.89. In data set [2] (setting [9]), the solubility kinetic at 2 h is 6.98 µM (≈ 3.44 µg/mL).

In the case of `[2H]C([2H])([2H])NC(=O)c1cnc(NC(=O)C2CC2)cc1Nc1nn(C)c2ccc([C@H](O)C(F)(F)F)c(OC)c12` [Example 49A, (S)-6-(cyclopropanecarboxamido)-4-((4-methoxy-1-methyl-5-(2,2,2-trifluoro-1-hydroxyethyl)-1H-indazol-3-yl)amino)-N-(methyl-d3)nicotinamide], the IC50 is 0.107 nM in data set [1] (setting [8]); 5.28 nM in data set [3] (setting [10]); more than 10000 nM in data set [5]; 0.464 nM in data set [4] (setting [11]); 10.5 nM in data set [6]. The JAK1/TYK2 selectivity in data set [1] (setting [7]) was determined as 49.3. Besides, in data set [2] (setting [9]), the solubility kinetic at 2 h was determined as 45.5 µM (≈ 22.5 µg/mL).

Regarding `[2H]C([2H])([2H])O[C@@H](c1ccc2c(c(Nc3cc(NC(=O)C4CC4)ncc3C(=O)OC)nn2C)c1OC)C(F)(F)F` [Example 50B, Methyl (S)-6-(cyclopropanecarboxamido)-4-((4-methoxy-1-methyl-5-(2,2,2-trifluoro-1-(methoxy-d3)ethyl)-1H-indazol-3-yl)amino)nicotinate], the IC50 in data set [1] (setting [8]) was 0.177 nM; in data set [3] (setting [10]), 28.8 nM; in data set [5], more than 5000 nM; in data set [4] (setting [11]) it was 2.85 nM; in data set [6], 56.5 nM. Also, in data set [1] (setting [7]), the JAK1/TYK2 selectivity amounted to 162.94. In data set [2] (setting [9]), the solubility kinetic at 2 h is 7.23 µM (≈ 3.69 µg/mL).
